The values below come from patent US11091471B2, “Isoxazolyl ether derivatives as GABAA α5 PAM” (Hoffmann-La Roche Inc., priority 2016, dated 2021).

In the first assay the target is h-GABA-A α5β3γ2 (Homo sapiens (Human), UniProt P18507+P31644). Put plainly: Two-electrode voltage clamp electrophysiology in Xenopus oocytes expressing GABAA receptors, modulation of GABA EC20 current. Particulars: Table 1; % modulation of GABA EC20 = 100*(Fold increase−1). The format is cell-based. The protocol: Xenopus laevis oocytes at maturation stages V-VI were used for the expression of cloned mRNA encoding GABAA receptor subunits. Oocytes ready for RNA micro-injection were bought from Ecocyte, Castrop-Rauxel, Germany and stored in modified Barth's medium (composition in mM: NaCl 88, KCl 1, NaHCO3 2.4, HEPES 10, MgSO4 0.82, CaNO3 0.33, CaCl2 0.33, pH=7.5) at 20° C. until the experiment.
Sequence of h-GABA-A α5β3γ2 (P31644 32-462): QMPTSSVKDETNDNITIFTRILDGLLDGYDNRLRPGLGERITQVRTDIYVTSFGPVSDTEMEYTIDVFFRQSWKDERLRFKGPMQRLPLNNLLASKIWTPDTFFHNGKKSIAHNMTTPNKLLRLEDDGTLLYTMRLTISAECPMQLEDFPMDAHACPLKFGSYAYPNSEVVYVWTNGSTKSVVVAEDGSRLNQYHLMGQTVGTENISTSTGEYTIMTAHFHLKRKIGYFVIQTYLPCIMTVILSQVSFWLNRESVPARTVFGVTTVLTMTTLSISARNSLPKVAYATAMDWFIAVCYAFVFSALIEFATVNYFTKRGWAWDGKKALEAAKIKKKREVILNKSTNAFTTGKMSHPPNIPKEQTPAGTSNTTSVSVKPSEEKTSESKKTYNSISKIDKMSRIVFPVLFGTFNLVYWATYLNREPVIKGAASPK
Sequence of h-GABA-A α5β3γ2 (P28472 26-473 partner): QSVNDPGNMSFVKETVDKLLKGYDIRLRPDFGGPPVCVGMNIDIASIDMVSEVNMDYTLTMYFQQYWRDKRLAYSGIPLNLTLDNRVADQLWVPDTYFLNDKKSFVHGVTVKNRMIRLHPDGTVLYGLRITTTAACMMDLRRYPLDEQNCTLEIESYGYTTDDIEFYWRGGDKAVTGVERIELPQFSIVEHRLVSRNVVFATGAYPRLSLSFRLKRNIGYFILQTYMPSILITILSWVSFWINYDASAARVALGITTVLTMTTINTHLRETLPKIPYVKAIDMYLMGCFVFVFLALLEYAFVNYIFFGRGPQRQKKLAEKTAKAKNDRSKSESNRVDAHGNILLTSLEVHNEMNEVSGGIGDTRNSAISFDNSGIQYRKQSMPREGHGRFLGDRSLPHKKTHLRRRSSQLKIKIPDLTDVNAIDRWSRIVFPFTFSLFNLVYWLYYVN
Sequence of h-GABA-A α5β3γ2 (P18507 40-475): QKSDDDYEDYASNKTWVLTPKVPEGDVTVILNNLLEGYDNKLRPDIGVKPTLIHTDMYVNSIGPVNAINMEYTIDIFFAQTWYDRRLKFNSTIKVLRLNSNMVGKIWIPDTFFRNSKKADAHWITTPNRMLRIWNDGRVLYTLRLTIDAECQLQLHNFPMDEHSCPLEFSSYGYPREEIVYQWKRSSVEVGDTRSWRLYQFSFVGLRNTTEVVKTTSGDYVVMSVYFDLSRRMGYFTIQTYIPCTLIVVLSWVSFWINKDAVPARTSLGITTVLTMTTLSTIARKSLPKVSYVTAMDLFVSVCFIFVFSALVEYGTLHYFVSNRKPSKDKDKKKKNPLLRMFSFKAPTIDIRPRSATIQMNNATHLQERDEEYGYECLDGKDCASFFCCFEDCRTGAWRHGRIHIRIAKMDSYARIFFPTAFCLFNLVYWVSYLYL
Oocytes were plated in 96-well plates to be used in an automated instrument (Robo-ocyte, MultiChannelSystems, Reutlingen, Germany) for microinjection and electrophysiological recordings. Approximately 50 nl of an aqueous solution containing the RNA transcripts for the subunits of the desired GABAA receptor was injected into each oocyte.
Electrophysiological experiments were performed on days 3 to 5 after the micro-injection of mRNA. During the experiment the oocytes were constantly superfused by a solution containing (in mM) NaCl 90, KCl 1, HEPES 5, MgCl2 1, CaCl2 1 (pH 7.4). Oocytes were impaled by two glass microelectrodes (resistance: 0.4 MΩ) which were filled with a solution containing KCl 1M+K-acetate 1.5 M and voltage-clamped to −80 mV. The recordings were performed at room temperature using the Roboocyte two-electrode voltage clamp system (Multichannelsystem). After an initial equilibration period of 1.5 min GABA was added for 1.5 min at a concentration evoking approximately 20% of a maximal current response (EC20). After another rest interval of 2.5 min GABA was again added evoking a response of similar amplitude and shape. […] Current traces were recorded at a digitization rate of 10 Hz during and shortly before and after the GABA application.
Each compound and concentration was tested on at least 3 oocytes.
For the analysis, the digitized current traces of the first and second GABA response were superimposed and, if necessary, rescaled to equal maximal amplitudes. The ratio between the two responses during the time interval of test compound application was calculated point by point. The extremum of the resulting “ratio trace” was taken as the efficacy (“Fold increase”) of the compound expressed as “% modulation of GABA EC20” (100*(Fold increase−1)).
In general terms: Two-electrode voltage clamp is typically applied to oocytes expressing channels or transporters.
Take `Cc1ccc(-c2noc(C)c2COc2cnc(C(=O)NC3COC3)cn2)cn1` [Example 77, 5-((5-methyl-3-(6-methyl-3-pyridyl)isoxazol-4-yl)methoxy)-N-(oxetan-3-yl)pyrazine-2-carboxamide]: the “Efficacy (GABA) %” value is recorded as 11%.

`Cc1ccc(-c2noc(C)c2COc2ccc(C(=O)N[C@H]3CCCOC3)nn2)cn1` [Example 103, (S)-6-((5-methyl-3-(6-methylpyridin-3-yl)isoxazol-4-yl)methoxy)-N-(tetrahydropyran-3-yl)pyridazine-3-carboxamide]: the “Efficacy (GABA) %” value was 81%.

On to `Cc1ccc(-c2noc(C)c2COc2ccc(C(=O)N3C4COCC3C4)nn2)cn1` [Example 157, 3-oxa-6-azabicyclo[3.1.1]heptan-6-yl(6-((5-methyl-3-(6-methylpyridin-3-yl)isoxazol-4-yl)methoxy)pyridazin-3-yl)methanone], for which the “Efficacy (GABA) %” value is recorded as 76%.

Staying with this assay, now noted: Table 1; GABA at EC20, test compound at approx. 30 fold its Ki, Xenopus oocytes.
With `CCC[C@@H](CO)NC(=O)c1ccc(OCc2c(-c3ccc(C)nc3)noc2C)nc1` [Example 4, (S)—N-(1-hydroxypentan-2-yl)-6-((5-methyl-3-(6-methylpyridin-3-yl)isoxazol-4-yl)methoxy)nicotinamide], the “Fold increase h-GABA-A α5β3γ2 oocyte” value was found to be 2.5.

Turning to `Cc1ccc(-c2noc(C)c2COc2cc3c(cn2)C(=O)N(C)C3)cn1` [Example 10, 2-methyl-6-((5-methyl-3-(6-methylpyridin-3-yl)isoxazol-4-yl)methoxy)-1H-pyrrolo[3,4-c]pyridin-3(2H)-one], the “Fold increase h-GABA-A α5β3γ2 oocyte” value is 1.8.

`CCC[C@@H](CO)NC(=O)c1cnc(OCc2c(-c3ccc(C)nc3)noc2C)cn1` [Example 14, N-((1S)-1-(hydroxymethyl)butyl)-5-((5-methyl-3-(6-methyl-3-pyridyl)isoxazol-4-yl)methoxy)pyrazine-2-carboxamide]: the “Fold increase h-GABA-A α5β3γ2 oocyte” value is 2.6.

`Cc1ccc(-c2noc(C)c2COc2ccc(C(N)=O)cn2)cn1` [Example 17, 6-((5-methyl-3-(6-methylpyridin-3-yl)isoxazol-4-yl)methoxy)nicotinamide]: the “Fold increase h-GABA-A α5β3γ2 oocyte” value was found to be 1.6.

Turning to `Cc1ccc(-c2noc(C)c2COc2ccc(C(=O)NC3CC3)nn2)cn1` [Example 26, N-cyclopropyl-6-((5-methyl-3-(6-methylpyridin-3-yl)isoxazol-4-yl)methoxy)pyridazine-3-carboxamide], the “Fold increase h-GABA-A α5β3γ2 oocyte” value is 1.8.

Turning to `Cc1ccc(-c2noc(C)c2COc2ccc(C(=O)NCC3(C)COC3)nn2)cn1` [Example 49, 6-((5-methyl-3-(6-methylpyridin-3-yl)isoxazol-4-yl)methoxy)-N-((3-methyloxetan-3-yl)methyl)pyridazine-3-carboxamide], the “Fold increase h-GABA-A α5β3γ2 oocyte” value is given as 1.7.

Turning to `Cc1ccc(-c2noc(C)c2COc2ccc(C(=O)N3CCC(F)(F)CC3)nn2)cn1` [Example 53, (4,4-difluoropiperidin-1-yl)(6-((5-methyl-3-(6-methylpyridin-3-yl)isoxazol-4-yl)methoxy)pyridazin-3-yl)methanone], the “Fold increase h-GABA-A α5β3γ2 oocyte” value amounted to 1.8.

For `Cc1ccc(-c2noc(C)c2COc2cnc(C(=O)NC3CCS(=O)(=O)CC3)cn2)cn1` [Example 72, N-(1,1-dioxothian-4-yl)-5-((5-methyl-3-(6-methyl-3-pyridyl)isoxazol-4-yl)methoxy)pyrazine-2-carboxamide], the “Fold increase h-GABA-A α5β3γ2 oocyte” value amounted to 2.3.

Turning to `Cc1ccc(-c2noc(C)c2COc2ccc(C(=O)N[C@@]3(C)CCOC3)nn2)cn1` [Example 81, (S)-6-((5-methyl-3-(6-methylpyridin-3-yl)isoxazol-4-yl)methoxy)-N-(3-methyltetrahydrofuran-3-yl)pyridazine-3-carboxamide], the “Fold increase h-GABA-A α5β3γ2 oocyte” value is listed as 1.8.

Regarding `Cc1ccc(-c2noc(C)c2COc2cnc(C(=O)NC3CCC(F)(F)CC3)cn2)cn1` [Example 86, N-(4,4-difluorocyclohexyl)-5-((5-methyl-3-(6-methyl-3-pyridyl)isoxazol-4-yl)methoxy)pyrazine-2-carboxamide], the “Fold increase h-GABA-A α5β3γ2 oocyte” value is 2.2.

Regarding `Cc1ccc(-c2noc(C)c2COc2ccc(C(=O)N[C@H]3CCOC3)nn2)cn1` [Example 87, (S)-6-((5-methyl-3-(6-methylpyridin-3-yl)isoxazol-4-yl)methoxy)-N-(tetrahydrofuran-3-yl)pyridazine-3-carboxamide], the “Fold increase h-GABA-A α5β3γ2 oocyte” value turned out to be 1.8.

As to `Cc1ccc(-c2noc(C)c2COc2cc3c(cn2)C(=O)N(C2CCS(=O)(=O)CC2)C3)cn1` [Example 91, 2-(1,1-dioxothian-4-yl)-6-((5-methyl-3-(6-methylpyridin-3-yl)-1,2-oxazol-4-yl)methoxy)-1H-pyrrolo[3,4-c]pyridin-3-one], the “Fold increase h-GABA-A α5β3γ2 oocyte” value was determined as 2.4.

In the case of `Cc1ccc(-c2noc(C)c2COc2ccc(C(=O)NC3CC4(COC4)C3)nn2)cn1` [Example 100, 6-((5-methyl-3-(6-methylpyridin-3-yl)isoxazol-4-yl)methoxy)-N-(2-oxaspiro[3.3]heptan-6-yl)pyridazine-3-carboxamide], the “Fold increase h-GABA-A α5β3γ2 oocyte” value is on record as 1.7.

Take `Cc1ccc(-c2noc(C)c2COc2ccc(C(=O)NC3CCOCC3)cn2)nn1` [Example 108, 6-((5-methyl-3-(6-methylpyridazin-3-yl)isoxazol-4-yl)methoxy)-N-tetrahydropyran-4-yl-pyridine-3-carboxamide]: the “Fold increase h-GABA-A α5β3γ2 oocyte” value came out at 1.2.

On to `CCc1onc(-c2ccc(C)nc2)c1COc1ccc(C(=O)NC2CCS(=O)(=O)CC2)cn1` [Example 120, N-(1,1-dioxidotetrahydro-2H-thiopyran-4-yl)-6-((5-ethyl-3-(6-methylpyridin-3-yl)isoxazol-4-yl)methoxy)pyridine-3-carboxamide], for which the “Fold increase h-GABA-A α5β3γ2 oocyte” value came out at 2.6.

`Cc1ccc(-c2noc(C)c2COc2ccc(C(=O)N[C@H]3CCOC[C@@H]3O)cn2)cn1` [Example 127, N-((3R,4S)-3-hydroxytetrahydropyran-4-yl)-6-((5-methyl-3-(6-methyl-3-pyridyl)isoxazol-4-yl)methoxy)pyridine-3-carboxamide]: the “Fold increase h-GABA-A α5β3γ2 oocyte” value is recorded as 1.5.

`Cc1ncc(-c2noc(C)c2COc2ccc(C(=O)NC3CCOCC3)cn2)cc1F` [Example 143, 6-((3-(5-fluoro-6-methyl-3-pyridyl)-5-methyl-isoxazol-4-yl)methoxy)-N-tetrahydropyran-4-yl-pyridine-3-carboxamide]: the “Fold increase h-GABA-A α5β3γ2 oocyte” value was 1.2.

On to `Cc1onc(-c2ccc(Cl)nc2)c1COc1ccc(C(=O)NC2(C)COC2)nn1` [Example 161, 6-((3-(6-chloropyridin-3-yl)-5-methylisoxazol-4-yl)methoxy)-N-(3-methyloxetan-3-yl)pyridazine-3-carboxamide], for which the “Fold increase h-GABA-A α5β3γ2 oocyte” value was determined as 1.6.

For the molecule `Cc1ccc(-c2noc(C)c2COc2ccc(C(=O)N[C@H]3C[C@H](OCC(F)F)C3)nn2)cn1` [Example 170, trans-N-3-((2,2-difluoroethoxy)cyclobutyl)-6-((5-methyl-3-(6-methylpyridin-3-yl)isoxazol-4-yl)methoxy)pyridazine-3-carboxamide], the “Fold increase h-GABA-A α5β3γ2 oocyte” value came to 1.6.

For the molecule `Cc1ccc(-c2noc(C)c2COc2ccc(C(=O)N[C@@H]3CC[C@@H](OCC(F)F)C3)nn2)cn1` [Example 191, N-((1R,3R)-3-(2,2-difluoroethoxy)cyclopentyl)-6-((5-methyl-3-(6-methylpyridin-3-yl)isoxazol-4-yl)methoxy)pyridazine-3-carboxamide], the “Fold increase h-GABA-A α5β3γ2 oocyte” value is given as 1.6.

The same assay, now with this note: Table 2; reference compounds, % modulation of GABA EC20.
On to `Cc1onc(-c2cccnc2)c1COc1ccc(C(=O)NC2CCOCC2)nn1` [RE-A, 6-((5-methyl-3-(3-pyridyl)isoxazol-4-yl)methoxy)-N-tetrahydropyran-4-yl-pyridazine-3-carboxamide, reference compound], for which the “Efficacy (GABA) %” value was −3%.

On to `Cc1onc(-c2ccc(Cl)cn2)c1COc1ccc(C(=O)NC2CCOCC2)nn1` [RE-B, 6-((3-(5-chloro-2-pyridyl)-5-methyl-isoxazol-4-yl)methoxy)-N-tetrahydropyran-4-yl-pyridazine-3-carboxamide, reference compound], for which the “Efficacy (GABA) %” value is on record as “+3%”.

`Cc1onc(-c2ccccn2)c1COc1ccc(C(=O)NC2CCOCC2)nn1` [RO-094, reference compound]: the “Efficacy (GABA) %” value is given as −18%.

The assay is the same for the next values; noted with them: Table 2; reference compounds, GABAA α5β3γ2 overexpressing oocytes.
In the case of `Cc1onc(-c2cccnc2)c1COc1ccc(C(=O)NC2CCOCC2)nn1` [RE-A, 6-((5-methyl-3-(3-pyridyl)isoxazol-4-yl)methoxy)-N-tetrahydropyran-4-yl-pyridazine-3-carboxamide, reference compound], the “Fold increase h-GABA-A α5β3γ2 oocyte” value is 0.97.

For the molecule `Cc1onc(-c2ccccn2)c1COc1ccc(C(=O)NC2CCOCC2)nn1` [RO-094, reference compound], the “Fold increase h-GABA-A α5β3γ2 oocyte” value is 0.82.

Still in this assay, the particulars now being: positive control (PAM) at a maximally effective concentration.
As for `Cc1ncc2n1-c1ccc(Cl)cc1C(c1ccccc1F)=NC2` [Midazolam, reference compound], the “potentiation of the GABA-induced current” value is on record as around 150%.

Still in this assay, the particulars now being: positive control at a maximally effective concentration, 3-6 oocytes per 96-well plate.
Turning to `Cc1ncc2n1-c1ccc(Cl)cc1C(c1ccccc1F)=NC2` [Midazolam, reference compound], the Fold increase was around 2.5.
